Our source for the EC50 values is US12612388B2, “Receptor-interacting protein 1 inhibitors including piperazine heterocyclic amide ureas” (SIRONAX LTD., priority 2020, dated 2026).

As usually defined, the EC50 is the concentration that produces a half-maximal response.

The first assay deals with HT-29 cells. Briefly: Cellular RIP1 inhibitory activity: necroptosis of HT-29 cells induced by TNF-α/SMAC mimetic/zVAD-FMK, CellTiter-Glo viability. The class given is cell-based. The settings on record: Homo sapiens, HT-29, 20 h, read-out: EC50 (Cell activity; Necrosis or Necroptosis Inhibitory Activity). The procedure: In Table 2, activity is provided as follows: +++=0.1 nM≤EC50<100 nM; ++=100 nM≤EC50K<1000 nM; +=1000 nM≤EC50K<10000 nM.
Compounds 1-67 (denoted as Compound Nos. 1 through 67 in Table 1) of the disclosure were tested for binding and cellular RIP1 inhibitory activity following the experimental procedures described below.
Cell line: HT-29 (ATCC® HTB-38™)
Culture medium: McCOY's 5A, Gibco, Cat No. 16600-082
DMSO: Sigma, Cat No. 67-68-5, 1 L
Assay plate: Corning #3903
Compound dilution plate: Corning #3357
Inducers: TNFα, GenScript, Cat No. Z01001-50,
SmacM, Cat. No., HY-15989, MedChemExpress (MCE)
Z_VAD FMK, TargetMol, T6013
Cell Titer-Glo® Luminescent Cell Viability Assay Kit: Promega, Cat No. G7573
1. HT-29 cells were checked every day to make sure that they were healthy and growing as expected. They were subjected to sub-culturing when they were approximately 80% confluent.
2. The culture medium, McCOY's 5A medium (Gibco, Cat No. 16600-082) with 10% fetal bovine serum or FBS (Gibco, Cat No. 10099-141C), was pre-warmed in a 37° C. water bath for at least 30 min.
3. When the cells had reached a desired level of confluency of 80% in a T75 flask, the medium was aspirated, and the cells were washed with warm phosphate buffered saline or PBS two times.
4. 2-3 ml fresh warm trypsin (Gibco, Cat No. 25200-056) solution was added to the washed cells. The flask with the cells was transferred to a 37° C. incubator.
5. After 5 minutes, the side of the flask was tapped, and the flask was examined under a microscope for detachment of the cells to the flask. If necessary, the cells were kept in the incubator for an additional 5-10 minutes, with occasional tapping, until lifting was complete.
6. The trypsin reaction was neutralized by transferring 6-9 ml cell culture medium to sterile 15 ml conical tubes, and by centrifuging the cell culture at 300×g for 7 minutes to pellet the cells (supernatant decanted).
7. The cells were resuspended in fresh cell culture medium and the cell counting was performed using a hemocytometer.
8. 100 μl of the resuspended cell culture medium containing ˜5,000 cells were transferred into each well of the sterile 96-well cell culture plate (Corning 3903) and cultured overnight at 37° C. with 5% CO2.
Compound Titration and Treatment
1. All test compounds were dissolved in DMSO (Dimethyl sulfoxide) to create a 20 mM stock.
2. 3 μl of each compound 20 mM stock was mixed with 27 μl DMSO, and the compound solution was further diluted at a titration ratio of 1:3 (20 μl compound solution+40 μl DMSO) till the 10 points end.
3. All culture medium was removed from assay plates filled with HT-29 cell cultures. The cells were then washed with 1 PBS, and resuspended in fresh, FBS-free McCOY's 5A medium containing a cocktail of TNF-α (10 ng/ml), a SMAC mimetic compound (6 μM) and Z-VAD-fluoromethylketone or zVAD-FMK (10 μM) to stimulate the HT-29 cells to increase RIP1 kinase levels and necroptosis.
4. 0.5 μL of the diluted compound solution was added to the corresponding 96-well assay plates.
5. The assay plates were incubated for 20 hours at 37° C. with 5% CO2.
1. The CellTiter-Glo® Luminescent Cell Viability Assay was employed to detect the ATP levels of viable HT-29 cells.
2. The CellTiter-Glo® buffer and the lyophilized substrate were equilibrated to room temperature prior to use.
3. The CellTiter-Glo® substrate was resuspended with CellTiter-Glo® buffer, then mixed by gently vortexing to obtain a homogeneous solution.
4. 20 μl the enzyme/substrate mixture was transferred by multi-channel pipetting into 96-well assay plates.
5. The assay plates were placed on an orbital shaker and the contents were shaken for 3 minutes to induce cell lysis.
6. The assay plates were incubated at room temperature for 10 minutes to stabilize the luminescent signal.
7. The luminescence signals were read and recorded with EnVision.
8. The geometric mean EC50 values were calculated from 10 points response dose with duplicates. […]
In the case of `O=C(c1nc(N2CCN(C(=O)N3N=CC[C@H]3c3cc(F)cc(F)c3)CC2)ncc1F)N1CCC1` [Compound 7, (S)-azetidin-1-yl(2-(4-(5-(3,5-difluorophenyl)-4,5-dihydro-1H-pyrazole-1-carbonyl)piperazin-1-yl)-5-fluoropyrimidin-4-yl)methanone], the concentration giving a half-maximal response (EC50) is 0.0001 to 0.1 µM.

Staying with this assay, now noted: Homo sapiens; HT-29 cells; TNF-α 10 ng/ml, SMAC mimetic 6 μM, zVAD-FMK 10 μM; 20 hours; geometric mean, 10 points, duplicates; read-out: EC50 (Cell activity; Necrosis or Necroptosis Inhibitory Activity).
For `N#C[C@@H]1CCN(C(=O)c2nc(N3CCN(C(=O)N4N=CC[C@H]4c4cc(F)cc(F)c4)CC3)ncc2F)C1` [Compound 16, (3R)-1-(2-(4-(5-(3,5-difluorophenyl)-4,5-dihydro-1H-pyrazole-1-carbonyl)piperazin-1-yl)-5-fluoropyrimidine-4-carbonyl)pyrrolidine-3-carbonitrile], the EC50 is 0.0001 to 0.1 µM. On the same count and under the same terms, as for `COC1CN(C(=O)c2nc(N3CCN(C(=O)N4N=CCC4c4cncc(Cl)c4)CC3)ncc2F)C1` (centres unmarked) [Compound 66, (5-(5-chloropyridin-3-yl)-4,5-dihydro-1H-pyrazol-1-yl)(4-(5-fluoro-4-(3-methoxyazetidine-1-carbonyl)pyrimidin-2-yl)piperazin-1-yl)methanone], the figure is 0.0001 to 0.1 µM; as for `N#Cc1cncc([C@@H]2CC=NN2C(=O)N2CCN(c3nccc(C(N)=O)n3)CC2)c1` [Compound 43, (S)-2-(4-(5-(5-cyanopyridin-3-yl)-4,5-dihydro-1H-pyrazole-1-carbonyl)piperazin-1-yl)pyrimidine-4-carboxamide], 0.1 to 1 µM; as for `NC(=O)C1CN(C(=O)c2nc(N3CCN(C(=O)N4N=CC[C@H]4c4cc(F)cc(F)c4)CC3)ncc2F)C1` [Compound 30, (S)-1-(2-(4-(5-(3,5-difluorophenyl)-4,5-dihydro-1H-pyrazole-1-carbonyl)piperazin-1-yl)-5-fluoropyrimidine-4-carbonyl)azetidine-3-carboxamide], 0.0001 to 0.1 µM.

Turning to `CNC(=O)c1ccnc(N2CCN(C(=O)N3N=CC[C@H]3c3cc(F)cc(F)c3)CC2)n1` [Compound 46, (S)-2-(4-(5-(3,5-difluorophenyl)-4,5-dihydro-1H-pyrazole-1-carbonyl)piperazin-1-yl)-N-methylpyrimidine-4-carboxamide], the EC50 is 0.0001 to 0.1 µM. `N#CC1CN(C(=O)c2nc(N3CCN(C(=O)N4N=CC[C@H]4c4cc(F)cc(F)c4)CC3)ncc2F)C1` [Compound 25, (S)-1-(2-(4-(5-(3,5-difluorophenyl)-4,5-dihydro-1H-pyrazole-1-carbonyl)piperazin-1-yl)-5-fluoropyrimidine-4-carbonyl)azetidine-3-carbonitrile]: the EC50 lay within 0.0001 to 0.1 µM. With `N#Cc1cc(F)cc([C@@H]2CC=NN2C(=O)N2CCN(c3ncc(F)c(C(=O)N4CC(C#N)C4)n3)CC2)c1` [Compound 54, (S)-1-(2-(4-(5-(3-cyano-5-fluorophenyl)-4,5-dihydro-1H-pyrazole-1-carbonyl)piperazin-1-yl)-5-fluoropyrimidine-4-carbonyl)azetidine-3-carbonitrile], the EC50 lay within 0.0001 to 0.1 µM. Regarding `N#C[C@H]1CCN(C(=O)c2nc(N3CCN(C(=O)N4N=CC[C@H]4c4cc(F)cc(F)c4)CC3)ncc2F)C1` [Compound 15, (3S)-1-(2-(4-(5-(3,5-difluorophenyl)-4,5-dihydro-1H-pyrazole-1-carbonyl)piperazin-1-yl)-5-fluoropyrimidine-4-carbonyl)pyrrolidine-3-carbonitrile], the half-maximal effective concentration (EC50) was in the range of 0.0001 to 0.1 µM.

Turning to `C=C1CN(C(=O)c2nc(N3CCN(C(=O)N4N=CC[C@H]4c4cc(F)cc(F)c4)CC3)ncc2F)C1` [Compound 55, (S)-(5-(3,5-difluorophenyl)-4,5-dihydro-1H-pyrazol-1-yl)(4-(5-fluoro-4-(3-methyleneazetidine-1-carbonyl)pyrimidin-2-yl)piperazin-1-yl)methanone], the EC50 lay in the range of 0.0001 to 0.1 µM.

Regarding `CN(C(=O)c1nc(N2CCN(C(=O)N3N=CC[C@H]3c3cc(F)cc(F)c3)CC2)ncc1F)C1CC1` [Compound 9, (S)—N-cyclopropyl-2-(4-(5-(3,5-difluorophenyl)-4,5-dihydro-1H-pyrazole-1-carbonyl)piperazin-1-yl)-5-fluoro-N-methylpyrimidine-4-carboxamide], the 50% effective concentration (EC50) lay in the range of 0.0001 to 0.1 µM. Consider `N#CC=C1CN(C(=O)c2nc(N3CCN(C(=O)N4N=CC[C@H]4c4cc(F)cc(F)c4)CC3)ncc2F)C1` [Compound 57, (S)-2-(1-(2-(4-(5-(3,5-difluorophenyl)-4,5-dihydro-1H-pyrazole-1-carbonyl)piperazin-1-yl)-5-fluoropyrimidine-4-carbonyl)azetidin-3-ylidene)acetonitrile], for which the EC50 was 0.0001 to 0.1 µM. Consider `COc1cnc(N2CCN(C(=O)N3N=CC[C@H]3c3cc(F)cc(F)c3)CC2)nc1C(N)=O` [Compound 62, (S)-2-(4-(5-(3,5-difluorophenyl)-4,5-dihydro-1H-pyrazole-1-carbonyl)piperazin-1-yl)-5-methoxypyrimidine-4-carboxamide], for which the concentration giving a half-maximal response (EC50) fell in the range of 0.1 to 1 µM. With `COC1CN(C(=O)c2nc(N3CCN(C(=O)N4N=CC[C@H]4c4cc(F)cc(C#N)c4)CC3)ncc2Cl)C1` [Compound 63, (S)-3-(1-(4-(5-chloro-4-(3-methoxyazetidine-1-carbonyl)pyrimidin-2-yl)piperazin-1-carbonyl)-4,5-dihydro-1H-pyrazol-5-yl)-5-fluorobenzonitrile], the EC50 lay in the range of 0.0001 to 0.1 µM. The same measure, in the same setting: as for `CN(C)CC1CN(C(=O)c2nc(N3CCN(C(=O)N4N=CC[C@H]4c4cc(F)cc(F)c4)CC3)ncc2F)C1` [Compound 28, (S)-(5-(3,5-difluorophenyl)-4,5-dihydro-1H-pyrazol-1-yl)(4-(4-(3-((dimethylamino)methyl)azetidine-1-carbonyl)-5-fluoropyrimidin-2-yl)piperazin-1-yl) methanone], the figure is 0.0001 to 0.1 µM; as for `CNC(=O)c1nc(N2CCN(C(=O)N3N=CC[C@H]3c3cc(F)cc(F)c3)CC2)ncc1F` [Compound 4], 0.0001 to 0.1 µM; as for `O=C(NO)c1nc(N2CCN(C(=O)N3N=CC[C@H]3c3cc(F)cc(F)c3)CC2)ncc1F` [Compound 2, (S)-2-(4-(5-(3,5-difluorophenyl)-4,5-dihydro-1H-pyrazole-1-carbonyl)piperazin-1-yl)-5-fluoro-N-hydroxypyrimidine-4-carboxamide], 0.0001 to 0.1 µM. Regarding `CCN(O)C(=O)c1nc(N2CCN(C(=O)N3N=CC[C@H]3c3cc(F)cc(F)c3)CC2)ncc1F` [Compound 11, (S)-2-(4-(5-(3,5-difluorophenyl)-4,5-dihydro-1H-pyrazole-1-carbonyl)piperazin-1-yl)-N-ethyl-5-fluoro-N-hydroxypyrimidine-4-carboxamide], the 50% effective concentration (EC50) was 0.0001 to 0.1 µM.

Turning to `O=C(c1nc(N2CCN(C(=O)N3N=CC[C@H]3c3cc(F)cc(F)c3)CC2)ncc1F)N1CC(OC(F)(F)F)C1` [Compound 60, (S)-(5-(3,5-difluorophenyl)-4,5-dihydro-1H-pyrazol-1-yl)(4-(5-fluoro-4-(3-(trifluoromethoxy)azetidine-1-carbonyl)pyrimidin-2-yl)piperazin-1-yl)methanone], the EC50 lay within 0.0001 to 0.1 µM.

Turning to `CONC(=O)c1nc(N2CCN(C(=O)N3N=CC[C@H]3c3cc(F)cc(F)c3)CC2)ncc1F` [Compound 3, (S)-2-(4-(5-(3,5-difluorophenyl)-4,5-dihydro-1H-pyrazole-1-carbonyl)piperazin-1-yl)-5-fluoro-N-methoxypyrimidine-4-carboxamide], the EC50 lay in the range of 0.1 to 1 µM.
